In PubChem BioAssay AID1949 (Southern Research Institute, 2009):
In brackets after ≈: the same amount, converted by molar mass. Records with an inconclusive call do not appear. Activity calls are given as the source filed them. The rule behind the calls is not given here.

What follows are compounds tested on M. tuberculosis H37Rv growth inhibition (assay: Confirmatory growth inhibition assay against Mycobacterium tuberculosis H37Rv, potency (AID 1949);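 note: bacteria grown 7 days with compound before Alamar blue readout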).

Compound	IC50
Cc1ccc(NCCC(=O)c2ccc([N+](=O)[O-])cc2)cc1Cl	19.6 µg/mL (≈ 61.3 µM)
CCc1nc2ccccc2n1CC(O)COc1ccc(Br)cc1 (centres undefined)	4.11 µg/mL (≈ 11 µM)
CC(=O)c1ccc(NC(=O)NC(C)C23CC4CC(CC(C4)C2)C3)cc1 (centres undefined)	19 µg/mL (≈ 55.8 µM)
CCOc1ccc2nc3cc(N)ccc3c(N)c2c1	0.81 µg/mL (≈ 3.2 µM)
O=C(CNCCN1CCOCC1)Nc1sc2c(c1C(=O)Nc1ccccc1)CCC2	2.12 µg/mL (≈ 4.95 µM)
O=Cc1cc(COc2ccc(F)cc2Cl)cs1	3.16 µg/mL (≈ 11.7 µM)
CC(C)c1ccc(OCC(=O)NNC(=S)NC(=O)c2ccco2)c(Br)c1	0.25 µg/mL (≈ 0.568 µM)
CC12CCC(C(=O)Nc3ccc(OC(F)(F)F)cc3)(CC1=O)C2(C)C (centres undefined)	3.09 µg/mL (≈ 8.7 µM)
C/C=C/c1ccc(OCCCOc2cccc3ccc(C)nc23)c(OC)c1	16.8 µg/mL (≈ 46.3 µM)
CCCC1(O)CC(c2ccc(Cl)cc2)NC(c2ccc(Cl)cc2)C1C (centres undefined)	2.34 µg/mL (≈ 6.18 µM)
CCOC(=O)COc1ccc2c(c1)c(C(=O)OCC)c(C)n2CC	0.4 µg/mL (≈ 1.2 µM)
Oc1ccc(CNc2ccccc2O)cc1	1.02 µg/mL (≈ 4.74 µM)
O=C(NCCC12CC3CC(CC(C3)C1)C2)c1ccc(Br)cc1	0.28 µg/mL (≈ 0.773 µM)
CSc1cccc(NC(=O)C2CCN(C(=O)c3ccc(-c4ccccc4)cc3)CC2)c1	5.73 µg/mL (≈ 13.3 µM)
S=C(NCCc1c[nH]c2ccccc12)Nc1ccc(Nc2ccccc2)cc1	2.81 µg/mL (≈ 7.27 µM)
Nc1cc(Oc2ccc(O)c(N)c2)ccc1O	6.13 µg/mL (≈ 26.4 µM)
Cc1cc(C)n(-c2nc3sc4c(c3c(=O)[nH]2)CCCC4)n1	24.4 µg/mL (≈ 81.1 µM)
O=C(CSc1ccc(F)cc1)Nc1ccccc1F	5.83 µg/mL (≈ 20.9 µM)
CC1CCc2sc3ncnc(NCCc4ccccc4)c3c2C1 (centres undefined)	1.85 µg/mL (≈ 5.72 µM)
Cc1cc(OCC(O)CNC(C)c2ccccc2)ccc1C(C)C (centres undefined)	5.52 µg/mL (≈ 16.9 µM)
Cc1ccc(Cl)c(OCC(O)Cn2cnc3cc(C)c(C)cc32)c1 (centres undefined)	8.12 µg/mL (≈ 23.5 µM)
CC(C)(C)c1ccc(C(=O)NC(=S)NCc2cccnc2)cc1	2.47 µg/mL (≈ 7.54 µM)
COc1ccccc1C(=O)NNC(=S)NC(=O)c1cccs1	0.15 µg/mL (≈ 0.447 µM)
O=C(CSc1ccc(F)cc1)Nc1ccc2c(c1)OCCO2	7.01 µg/mL (≈ 22 µM)

Compound	IC50
Cc1ccc(-c2nc(NC(=O)CO)cs2)cc1	0.36 µg/mL (≈ 1.45 µM)
O=C1c2cccc3cc([N+](=O)[O-])cc(c23)C(=O)N1CCO	> 50 µg/mL (inactive)
COc1cc(C(=O)Nc2nc3c(s2)CCCC3)c(Br)c(OC)c1OC	2.8 µg/mL (≈ 6.55 µM)
C=CCn1c(Sc2ccc(C(F)(F)F)cc2[N+](=O)[O-])nnc1-c1ccccc1Cl	0.19 µg/mL (≈ 0.431 µM)
Cc1ccc(-c2ccc(OCC(=O)OCc3ccccc3)cc2)cc1	0.23 µg/mL (≈ 0.692 µM)
COc1cc([N+](=O)[O-])ccc1NC(=O)c1cc(Cl)ccc1O	0.12 µg/mL (≈ 0.372 µM)
CC(=O)Oc1ccc2nc(-c3ccc(C)c(C)c3)oc(=O)c2c1	> 50 µg/mL (inactive)
Cc1cc(C)cc(NC(=O)COc2cccc(C=O)c2)c1	3.3 µg/mL (≈ 11.6 µM)
COc1ccc(-c2cc(C(F)F)n3ncc(C(=O)NCCCn4ccnc4)c3n2)cc1	8.99 µg/mL (≈ 21.1 µM)
COc1cccc(NC(=O)CSc2nnc(-c3ccc(Br)cc3)o2)c1	3.12 µg/mL (≈ 7.42 µM)
O=C(/C=C/c1cc([N+](=O)[O-])ccc1O)c1ccc(Cl)cc1	1.24 µg/mL (≈ 4.08 µM)
CCCCOc1ccc(S(=O)(=O)Nc2ccc(I)cc2)cc1	2.84 µg/mL (≈ 6.58 µM)
C1=C(c2ccc(Oc3ccccc3)cc2)N2CCN=C2S1	5.23 µg/mL (≈ 17.8 µM)
Cc1ccc(NC(=O)CC2COc3ccccc3O2)cc1Cl (centres undefined)	1.56 µg/mL (≈ 4.91 µM)
CCCCOc1ccc(NC2=NC3(CCCCC3)N=C(N)N2)cc1	12.1 µg/mL (≈ 36.6 µM)
O=C(Oc1ccc(Cl)cc1)c1ccc(S(=O)(=O)c2ccc(Cl)cc2)cc1	1.02 µg/mL (≈ 2.5 µM)
Cc1cccc(C)c1OCC(=O)N/N=C/c1ccc(O)c([N+](=O)[O-])c1	0.36 µg/mL (≈ 1.05 µM)
CN1CCN(c2ccc(NC(=O)c3cccc(I)c3)cc2)CC1	> 50 µg/mL (inactive)
CC(C)(C)c1cc(Cl)c(O)c(NC(=S)NC(=O)c2cncc(Br)c2)c1	< 0.1 µg/mL
Cc1ccccc1Nc1nc(NCc2ccco2)c2ccccc2n1	2.64 µg/mL (≈ 7.99 µM)
COc1ccccc1Nc1nc(NCc2ccccc2)c2ccccc2n1	3.21 µg/mL (≈ 9.01 µM)
COC(=O)CSc1nnc(SCc2ccc(OC)cc2)s1	2.28 µg/mL (≈ 6.66 µM)
O=[N+]([O-])c1ccc2nc(CSc3nc4ccccc4o3)[nH]c2c1	3.21 µg/mL (≈ 9.84 µM)
c1ccc(CCN(Cc2ccccc2)C2CCN(Cc3c[nH]c4ccccc34)CC2)cc1	2.91 µg/mL (≈ 6.87 µM)

Compound	IC50
CN1CCN(C(=S)NC(=O)c2ccc(-c3ccccc3)cc2)CC1	1.04 µg/mL (≈ 3.06 µM)
NC(=O)CSc1nnc(SCc2cccc3ccccc23)s1	15.1 µg/mL (≈ 43.5 µM)
Cc1ccc(C(=O)NCCC2=CCCCC2)cc1I	2.92 µg/mL (≈ 7.91 µM)
Cc1cccc(Nc2nc(N)nc(CN3CCN(c4cccc(Cl)c4)CC3)n2)c1	0.39 µg/mL (≈ 0.951 µM)
CCOc1ccccc1NC(=O)COc1ccc(C(C)C)cc1	5.01 µg/mL (≈ 16 µM)
Cc1cc(C(=O)NCC23CC4CC(CC(C4)C2)C3)ccc1[N+](=O)[O-]	0.42 µg/mL (≈ 1.28 µM)
CCOC(=O)c1ccc(NC(=S)Nc2ccc(Oc3ccccc3)cc2)cc1	0.39 µg/mL (≈ 0.994 µM)
Cc1ccc(NC(=O)c2cc([N+](=O)[O-])ccc2O)cc1	14.3 µg/mL (≈ 52.4 µM)
CC(=O)Oc1ccc2nc(-c3ccc(C(C)(C)C)cc3)oc(=O)c2c1	> 50 µg/mL (inactive)
CCCC(=O)N1CCN(c2ccc(NC(=O)COc3ccc(C(C)CC)cc3)cc2Cl)CC1 (centres undefined)	11.3 µg/mL (≈ 24 µM)
CCOC(=O)c1c(NC(=O)COc2ccccc2C)sc(C(=O)N2CCCC2)c1C	> 50 µg/mL (inactive)
Brc1ccc(-c2nn(-c3ccccc3)cc2CNCc2ccccc2)cc1	1.24 µg/mL (≈ 2.96 µM)
CCCN(CCC)C(=S)NC(=O)c1ccc(OC)cc1	2.58 µg/mL (≈ 8.76 µM)
CC(C)OC(=O)C(C)Oc1ccc2c(-c3ccccc3)cc(=O)oc2c1 (centres undefined)	1.63 µg/mL (≈ 4.63 µM)
CSc1ccccc1NC(=O)c1ccc(Cl)s1	5.6 µg/mL (≈ 19.7 µM)
NC(=O)CSc1nnc(SCc2ccc(Cl)cc2)s1	5.19 µg/mL (≈ 15.6 µM)
CCOC(=O)c1c(NC(=O)c2c(F)c(F)c(F)c(F)c2F)sc(C(N)=O)c1C	< 0.1 µg/mL
Cc1nn(-c2ccc([N+](=O)[O-])cc2)c(C)c1N1C(=O)c2cccc3cc(Br)cc(c23)C1=O	0.39 µg/mL (≈ 0.794 µM)
CSc1ccc(/C=C/c2nc(-c3ccccc3O)n[nH]2)cc1	4.5 µg/mL (≈ 14.5 µM)
CN=c1c([N+](=O)[O-])nn(-c2ccccc2)n1O	> 50 µg/mL (inactive)
O=c1cc(Cc2ccccc2)nc2c(-c3ccccc3)c[nH]n12	0.36 µg/mL (≈ 1.19 µM)
O=C(CSc1n[nH]c(-c2ccc(Cl)cc2)n1)Nc1ccc(F)c(Cl)c1	39 µg/mL (≈ 98.2 µM)
O=[N+]([O-])/C=C/c1ccc(-c2ccc(F)cc2)o1	10.1 µg/mL (≈ 43.3 µM)
Cc1cc(OCCCn2ccnc2)ccc1C(C)C	4.44 µg/mL (≈ 17.2 µM)

Compound	IC50
O=C(Oc1ccc(Cl)cc1)c1sc2ccccc2c1Cl	24.2 µg/mL (≈ 74.9 µM)
CC1CCCCC1NC(=O)CSc1nc2ccccc2c(=O)[nH]1 (centres undefined)	18.4 µg/mL (≈ 55.5 µM)
CCOC(=O)C1=C(c2ccc(C)cc2)C(=O)c2ccccc2C1=O	3.03 µg/mL (≈ 9.46 µM)
O=C(Oc1ccc(F)cc1)c1sc2ccccc2c1Cl	3.07 µg/mL (≈ 10 µM)
CCOC(=O)COc1ccc2c3c(c(=O)oc2c1C)CCC3	> 50 µg/mL (inactive)
CC(=O)Cc1nc(-c2ccccc2)no1	> 50 µg/mL (inactive)
O=C(CSc1n[nH]c(-c2ccc(Cl)cc2)n1)Nc1ccccc1Cl	4.21 µg/mL (≈ 11.1 µM)
O=C(CSc1ccccc1)c1ccc([N+](=O)[O-])cc1	9.78 µg/mL (≈ 35.8 µM)
COc1cccc(N2CCN(C(=O)Nc3ccc(Cl)c(Cl)c3)CC2)c1	9.41 µg/mL (≈ 24.7 µM)
Cc1cc(C)cc(NC(=S)NC2CCCC2)c1	8.73 µg/mL (≈ 35.1 µM)
COc1ccc(C(=O)N=Nc2c(O)[nH]c3ccc(Br)cc23)cc1	19.9 µg/mL (≈ 53.1 µM)
Cc1ccc(N2CC(C(=O)Nc3ncc([N+](=O)[O-])s3)CC2=O)cc1 (centres undefined)	28.3 µg/mL (≈ 81.6 µM)
O=C1c2ccccc2C(=O)c2c1nc1ccccn21	2.87 µg/mL (≈ 11.6 µM)
COc1cc2c(cc1NC(=O)Nc1ccc(Cl)cc1)oc1ccccc12	1.33 µg/mL (≈ 3.63 µM)
Cc1ccc2nc(NCc3ccccc3)[nH]c2c1	1.49 µg/mL (≈ 6.28 µM)
OC(CN1CCN(C(c2ccccc2)c2ccccc2)CC1)Cn1c2ccccc2c2ccccc21 (centres undefined)	10.7 µg/mL (≈ 22.5 µM)
Cc1c(Cl)c(C(F)(F)F)nn1CCCNC(=S)NCc1ccc(Cl)cc1	11.2 µg/mL (≈ 26.2 µM)
O=C(NC(=S)N1CCCCCC1)c1ccc([N+](=O)[O-])cc1	1.42 µg/mL (≈ 4.62 µM)
CCOC(=O)COc1ccc2c(C)c(CC(=O)OC)c(=O)oc2c1	35 µg/mL (≈ 105 µM)
O=S1(=O)C=C(Sc2nnc(-c3ccncc3)o2)c2ccccc21	1.33 µg/mL (≈ 3.87 µM)
Clc1ccc(CN2CCN(c3ncnc4scc(-c5cccs5)c34)CC2)cc1	20.5 µg/mL (≈ 48.1 µM)
O=C(CCN1CCc2ccccc2C1)c1ccc2c(c1)OCCO2	14.9 µg/mL (≈ 46 µM)
O=C(Nc1cc(Cl)ccc1O)c1cc(Cl)ccc1Cl	12.2 µg/mL (≈ 38.5 µM)
Cc1cccc(OCCCn2cnc3cc(C)c(C)cc32)c1	1.84 µg/mL (≈ 6.25 µM)

Compound	IC50
CCc1c(C)sc(NC(=S)N2CCN(CC)CC2)c1C(=O)OC	16.3 µg/mL (≈ 45.8 µM)
CCN(CC)CCn1nc2c3c(cccc3c1=O)-c1ccccc1-2	5.48 µg/mL (≈ 17.2 µM)
Cc1cccc(C)c1OCc1nnc(SCC(=O)NCCc2ccccc2)o1	1.75 µg/mL (≈ 4.4 µM)
CC1CCN(c2nnnc3c2sc2nc(N4CCOCC4)c4c(c23)CCCC4)CC1	> 50 µg/mL (inactive)
COc1ccc(-c2c(C)[nH]n3c(=O)c(Cc4ccccc4)c(C)nc23)cc1	1.28 µg/mL (≈ 3.56 µM)
CC(C)(C)c1ccc(-c2nn3c(Cc4ccccc4)nnc3s2)cc1	> 50 µg/mL (inactive)
COc1ccc(C)cc1NC(=O)c1ccc(CN2CCC(Cc3ccccc3)CC2)cc1	3.36 µg/mL (≈ 7.84 µM)
Clc1ccc2[nH]c3c(c2c1)CCc1cn[nH]c1-3	> 50 µg/mL (inactive)
Cc1ccc(Cl)cc1N1CCN(C(=O)CC23CC4CC(CC(C4)C2)C3)CC1	4.43 µg/mL (≈ 11.4 µM)
Cc1ccc(SCCNC(=S)Nc2ccc(Nc3ccccc3)cc2)cc1	4.03 µg/mL (≈ 10.2 µM)
O=C(Nc1cccc([N+](=O)[O-])c1)Nc1ccc(Cl)c(C(F)(F)F)c1	0.19 µg/mL (≈ 0.528 µM)
N#Cc1ccc(NC(=O)Nc2ccc(Cl)cc2)cc1	0.51 µg/mL (≈ 1.88 µM)
CCOC(=O)COc1ccc(C(=O)NC2CCCCC2)cc1	1.09 µg/mL (≈ 3.57 µM)
Brc1c(OCCCn2ccnc2)ccc2ccccc12	1.56 µg/mL (≈ 4.71 µM)
COc1cc([N+](=O)[O-])ccc1NC(=S)Nc1ccc(F)c(Cl)c1	2.76 µg/mL (≈ 7.76 µM)
CCOC(=O)COc1cc2oc(=O)cc(CC)c2cc1Cl	1.43 µg/mL (≈ 4.6 µM)
CC(C)(C)NC(=O)c1cc2cc(Cl)cc(Cl)c2oc1=O	2.54 µg/mL (≈ 8.08 µM)
CCOC(=O)c1ccc(NC(=O)c2ccc(C)s2)cc1	2.22 µg/mL (≈ 7.67 µM)
O=C(Nc1nc2ccccc2[nH]1)c1ccc(Br)cc1	14.5 µg/mL (≈ 46 µM)
CCSc1nc2ccccc2n1C(=O)c1ccc(S(=O)(=O)N2CCOCC2)cc1	> 50 µg/mL (inactive)
Cc1ccccc1OCCCCn1cnc2ccccc21	6.34 µg/mL (≈ 22.6 µM)
C(=NN1CCN(C2c3ccccc3-c3ccccc32)CC1)c1ccncc1	11.2 µg/mL (≈ 31.5 µM)
Cc1ccc(NC(=O)COc2ccc(F)cc2)cc1	> 50 µg/mL (inactive)
